From US20170209346A1, “SHAPED CELLULOSE BODIES WITH PHYSIOLOGICALLY ACTIVE MINERAL SUBSTANCES DISTRIBUTED THEREIN” (smartpolymer GmbH, priority 2014, published 2017)
Where two headings read alike, the source gives them in different places.

Assays:
[1] = literature data, cited from earlier work
[2] = Solubility of mineral compounds in water; conditions: at 20° C.; chemically pure material used in Example 1
Description: The mineral compounds contain at least one mineral from the group consisting of sodium, potassium, calcium and magnesium and zinc. […] Water solubility is a prerequisite for the activity of the mineral compounds used, since corresponding anions and cations can thus be released.
This reported solubility is based on literature data. This list in no way restricts the actual multiplicity of possible mineral compounds having the required properties.

[O]=[Mg] [Magnesium oxide]
solubility in water ([1]; temperature not given): 12 mg/L

[O]=[Zn] [Zinc oxide]
solubility in water ([1]; 29° C.): 1.6 mg/L

[O]=[Mg] [type 1 magnesium oxide, magnesium oxide]
solubility in water [2]: 12.5 mg/L

Hydroxylapatite
solubility in water ([1]; 20° C.): 6.57 mg/L
